In experiment [1] the target is T1, Tau-tubulin kinase 1 (Homo sapiens, UniProt Q5TCY1). As to the kind of experiment: Inhibition of human TTBK1 assessed as residual activity at 100 uM using MBP as substrate by [gamma-33P]-ATP assay relative to control.
In experiment [2] the target is Tau-tubulin kinase 2 (Homo sapiens) (UniProt Q6IQ55). In words: Inhibition of human TTBK2 assessed as residual activity at 100 uM using MBP as substrate by [gamma-33P]-ATP assay relative to control.
Experiment [3] deals with Mitogen-activated protein kinase 11 (Homo sapiens) (UniProt Q15759). As to the kind of experiment: Inhibition of human p38beta assessed as residual activity at 100 uM using MBP as substrate by [gamma-33P]-ATP assay relative to control.
In experiment [4] the target is T2, TGF-beta receptor type-2 (Homo sapiens, UniProt P37173). As to the kind of experiment: Inhibition of human TGFBR2 assessed as residual activity at 100 uM using MBP as substrate by [gamma-33P]-ATP assay relative to control.
In experiment [5] the target is Bone morphogenetic protein receptor type-1A (Homo sapiens) (UniProt P36894). As to the kind of experiment: Inhibition of human ALK3 assessed as residual activity at 100 uM using casein as substrate by [gamma-33P]-ATP assay relative to control.
Experiment [6] deals with Activin receptor type-1-like (Homo sapiens) (UniProt P37023). In words: Inhibition of human ALK1 assessed as residual activity at 100 uM using casein as substrate by [gamma-33P]-ATP assay relative to control.
For experiment [7], the target named is Bone morphogenetic protein receptor type-1B (Homo sapiens) (UniProt O00238). In words: Inhibition of human ALK6 assessed as residual activity at 100 uM using casein as substrate by [gamma-33P]-ATP assay relative to control.
In experiment [8] the target is Activin receptor type-1B (Homo sapiens) (UniProt P36896). In words: Inhibition of human ALK4 assessed as residual activity at 100 uM using casein as substrate by [gamma-33P]-ATP assay relative to control.
Experiment [9] has as its target T2, TGF-beta receptor type-2.
Experiment [10] has as its target T3, Serine/threonine-protein kinase VRK2 (Homo sapiens, UniProt Q86Y07). In words: Inhibition of human VRK2 assessed as residual activity at 100 uM using casein as substrate by [gamma-33P]-ATP assay relative to control.
Experiment [11] deals with T4, Mitogen-activated protein kinase kinase kinase kinase 1 (Homo sapiens, UniProt Q92918).
The target in experiment [12] is T3, Serine/threonine-protein kinase VRK2.
Experiment [13] addresses Serine/threonine-protein kinase VRK1 (Homo sapiens, UniProt Q99986).
In experiment [14] the target is T5, Mitogen-activated protein kinase kinase kinase 8 (Homo sapiens, UniProt P41279). In words: Inhibition of human COT1 assessed as residual activity at 100 uM using MEK1 as substrate by [gamma-33P]-ATP assay relative to control.
For experiment [15], the target named is T6, Homeodomain-interacting protein kinase 1 (Homo sapiens, UniProt Q86Z02). In words: Inhibition of human HIPK1 assessed as residual activity at 100 uM using MBP as substrate by [gamma-33P]-ATP assay relative to control.
In experiment [16] the target is T5, Mitogen-activated protein kinase kinase kinase 8.
The target of experiment [17] is T4, Mitogen-activated protein kinase kinase kinase kinase 1. As to the kind of experiment: Inhibition of human HPK1 assessed as residual activity at 100 uM using MBP as substrate by [gamma-33P]-ATP assay relative to control.
The target in experiment [18] is T6, Homeodomain-interacting protein kinase 1.
Experiment [19] addresses T7, Serine/threonine-protein kinase Nek7 (Homo sapiens, UniProt Q8TDX7). In words: Inhibition of human NEK7 assessed as residual activity at 100 uM using casein as substrate by [gamma-33P]-ATP assay relative to control.
The target of experiment [20] is T7, Serine/threonine-protein kinase Nek7.
Experiment [21] deals with T8, Serine/threonine-protein kinase Nek6 (Homo sapiens, UniProt Q9HC98).
The target in experiment [22] is T8, Serine/threonine-protein kinase Nek6. As to the kind of experiment: Inhibition of human NEK6 assessed as residual activity at 100 uM using casein as substrate by [gamma-33P]-ATP assay relative to control.
The target of experiment [23] is T1, Tau-tubulin kinase 1.
Experiment [24] addresses Wee1-like protein kinase (Homo sapiens) (UniProt P30291). As to the kind of experiment: Inhibition of human WEE1 assessed as residual activity at 100 uM using MBP as substrate by [gamma-33P]-ATP assay relative to control.
The target of experiment [25] is T9, Serine/threonine-protein kinase WNK3 (Homo sapiens, UniProt Q9BYP7). As to the kind of experiment: Inhibition of human WNK3 assessed as residual activity at 100 uM using MBP as substrate by [gamma-33P]-ATP assay relative to control.
Experiment [26] deals with T9, Serine/threonine-protein kinase WNK3.
For experiment [27], the target named is T10, Receptor-interacting serine/threonine-protein kinase 3 (Homo sapiens, UniProt Q9Y572). As to the kind of experiment: Inhibition of human RIPK3 assessed as residual activity at 100 uM using MBP as substrate by [gamma-33P]-ATP assay relative to control.
The target in experiment [28] is T11, Mitogen-activated protein kinase kinase kinase 20 (Homo sapiens, UniProt Q9NYL2). As to the kind of experiment: Inhibition of human ZAK assessed as residual activity at 100 uM using MBP as substrate by [gamma-33P]-ATP assay relative to control.
Experiment [29] deals with Dual specificity tyrosine-phosphorylation-regulated kinase 4 (Homo sapiens, UniProt Q9NR20).
For experiment [30], the target named is Dual specificity tyrosine-phosphorylation-regulated kinase 4 (Homo sapiens) (UniProt Q9NR20). As to the kind of experiment: Inhibition of human DYRK4 assessed as residual activity at 100 uM using RRRFRPASPLRGPPK as substrate by [gamma-33P]-ATP assay relative to control.
The target of experiment [31] is T12, Casein kinase II subunit alpha (Homo sapiens, UniProt P68400).
Experiment [32] has as its target T12, Casein kinase II subunit alpha. In words: Inhibition of human CK2A assessed as residual activity at 100 uM using RRRDDDSDDD as substrate by [gamma-33P]-ATP assay relative to control.
Experiment [33] deals with T13, Serine/threonine-protein kinase A-Raf (Homo sapiens) (UniProt P10398).
T13 sequence (whole entry): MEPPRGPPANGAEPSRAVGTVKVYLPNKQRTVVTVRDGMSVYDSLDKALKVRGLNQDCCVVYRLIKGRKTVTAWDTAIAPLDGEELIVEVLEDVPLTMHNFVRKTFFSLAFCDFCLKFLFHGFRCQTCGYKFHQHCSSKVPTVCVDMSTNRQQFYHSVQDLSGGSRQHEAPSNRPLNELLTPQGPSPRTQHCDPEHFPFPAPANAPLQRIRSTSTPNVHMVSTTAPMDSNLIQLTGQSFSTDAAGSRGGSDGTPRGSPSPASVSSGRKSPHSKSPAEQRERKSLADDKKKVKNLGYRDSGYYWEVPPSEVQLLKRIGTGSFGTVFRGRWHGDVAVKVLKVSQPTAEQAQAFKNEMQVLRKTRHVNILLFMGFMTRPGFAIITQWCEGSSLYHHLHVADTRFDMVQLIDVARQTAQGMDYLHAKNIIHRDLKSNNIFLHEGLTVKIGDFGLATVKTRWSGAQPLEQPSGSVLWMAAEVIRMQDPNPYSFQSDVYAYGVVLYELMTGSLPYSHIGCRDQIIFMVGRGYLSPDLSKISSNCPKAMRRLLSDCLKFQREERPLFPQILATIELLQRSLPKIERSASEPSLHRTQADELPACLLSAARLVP
In words: Inhibition of human ARAF assessed as residual activity at 100 uM using MEK1 as substrate by [gamma-33P]-ATP assay relative to control.

For experiment [34], the target named is T11, Mitogen-activated protein kinase kinase kinase 20.
Experiment [35] addresses T10, Receptor-interacting serine/threonine-protein kinase 3.
The target in experiment [36] is Serine/threonine-protein kinase A-Raf (Homo sapiens, UniProt P10398).
Experiment [37] addresses Tyrosine-protein kinase JAK3 (Homo sapiens) (UniProt P52333). In words: Inhibition of human JAK3 assessed as residual activity at 100 uM using poly[Glu:Tyr] (4:1) as substrate by [gamma-33P]-ATP assay relative to control.

pIC50: −log10 of the molar value.

T5 sequence (P41279 whole entry): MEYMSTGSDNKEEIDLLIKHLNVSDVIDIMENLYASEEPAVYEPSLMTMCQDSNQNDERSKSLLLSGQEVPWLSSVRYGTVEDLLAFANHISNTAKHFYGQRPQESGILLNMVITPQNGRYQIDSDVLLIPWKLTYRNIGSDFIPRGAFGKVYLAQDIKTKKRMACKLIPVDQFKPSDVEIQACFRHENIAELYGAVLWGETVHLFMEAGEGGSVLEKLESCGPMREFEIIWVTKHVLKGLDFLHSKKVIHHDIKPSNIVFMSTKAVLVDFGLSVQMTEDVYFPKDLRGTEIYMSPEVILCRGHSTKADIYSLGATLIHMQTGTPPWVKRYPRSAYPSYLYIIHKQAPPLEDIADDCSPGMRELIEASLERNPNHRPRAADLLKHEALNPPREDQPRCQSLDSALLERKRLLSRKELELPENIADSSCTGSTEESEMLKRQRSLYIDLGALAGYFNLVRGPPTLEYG
T1 sequence (Q5TCY1 whole entry): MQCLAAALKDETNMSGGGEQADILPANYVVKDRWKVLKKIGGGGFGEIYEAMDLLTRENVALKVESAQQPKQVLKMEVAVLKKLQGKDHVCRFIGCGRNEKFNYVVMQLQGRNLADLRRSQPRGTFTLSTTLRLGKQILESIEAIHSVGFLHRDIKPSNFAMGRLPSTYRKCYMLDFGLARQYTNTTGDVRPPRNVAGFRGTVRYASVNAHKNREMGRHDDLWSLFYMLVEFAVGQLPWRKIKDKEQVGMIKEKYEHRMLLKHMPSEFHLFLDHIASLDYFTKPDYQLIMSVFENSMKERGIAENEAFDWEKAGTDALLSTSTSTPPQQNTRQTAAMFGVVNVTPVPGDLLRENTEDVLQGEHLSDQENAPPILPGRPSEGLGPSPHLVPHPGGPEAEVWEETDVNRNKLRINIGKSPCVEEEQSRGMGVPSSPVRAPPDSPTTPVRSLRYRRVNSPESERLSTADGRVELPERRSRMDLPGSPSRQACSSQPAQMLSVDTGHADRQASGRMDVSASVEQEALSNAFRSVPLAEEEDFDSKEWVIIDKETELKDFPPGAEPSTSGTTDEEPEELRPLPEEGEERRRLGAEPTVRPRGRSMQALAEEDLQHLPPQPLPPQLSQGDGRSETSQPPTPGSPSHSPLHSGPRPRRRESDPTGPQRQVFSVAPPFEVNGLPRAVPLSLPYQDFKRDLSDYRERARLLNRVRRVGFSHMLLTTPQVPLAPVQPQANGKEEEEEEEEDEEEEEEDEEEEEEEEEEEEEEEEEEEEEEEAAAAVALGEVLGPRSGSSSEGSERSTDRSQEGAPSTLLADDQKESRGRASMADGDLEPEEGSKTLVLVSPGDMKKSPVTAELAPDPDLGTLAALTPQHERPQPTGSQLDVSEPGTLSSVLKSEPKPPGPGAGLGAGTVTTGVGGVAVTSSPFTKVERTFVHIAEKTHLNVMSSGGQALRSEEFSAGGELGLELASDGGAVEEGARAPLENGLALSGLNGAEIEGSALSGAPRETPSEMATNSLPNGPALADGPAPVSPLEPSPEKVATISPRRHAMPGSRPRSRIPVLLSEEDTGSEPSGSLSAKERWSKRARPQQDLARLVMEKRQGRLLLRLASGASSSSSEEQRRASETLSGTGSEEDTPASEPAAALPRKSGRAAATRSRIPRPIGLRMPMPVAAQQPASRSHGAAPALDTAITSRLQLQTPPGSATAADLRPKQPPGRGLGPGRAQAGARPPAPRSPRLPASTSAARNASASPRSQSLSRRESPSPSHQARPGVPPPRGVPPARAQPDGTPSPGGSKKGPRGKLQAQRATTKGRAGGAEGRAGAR
T2 sequence (P37173 whole entry): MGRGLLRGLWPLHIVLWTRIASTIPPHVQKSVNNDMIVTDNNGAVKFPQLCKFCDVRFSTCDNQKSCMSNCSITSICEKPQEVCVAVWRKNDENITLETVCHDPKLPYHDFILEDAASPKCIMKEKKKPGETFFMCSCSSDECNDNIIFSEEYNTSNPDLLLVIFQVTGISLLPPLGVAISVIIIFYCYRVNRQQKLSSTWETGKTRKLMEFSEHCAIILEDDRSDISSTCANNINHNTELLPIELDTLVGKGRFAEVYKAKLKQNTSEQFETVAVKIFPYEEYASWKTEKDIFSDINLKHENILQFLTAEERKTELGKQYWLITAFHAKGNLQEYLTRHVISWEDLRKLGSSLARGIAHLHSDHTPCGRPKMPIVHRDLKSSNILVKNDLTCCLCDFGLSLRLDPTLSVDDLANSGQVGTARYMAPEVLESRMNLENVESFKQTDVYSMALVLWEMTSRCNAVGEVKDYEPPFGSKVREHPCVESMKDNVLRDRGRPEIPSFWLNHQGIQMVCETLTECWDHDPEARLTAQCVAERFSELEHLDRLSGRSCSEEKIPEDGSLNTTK
T8 sequence (Q9HC98 whole entry): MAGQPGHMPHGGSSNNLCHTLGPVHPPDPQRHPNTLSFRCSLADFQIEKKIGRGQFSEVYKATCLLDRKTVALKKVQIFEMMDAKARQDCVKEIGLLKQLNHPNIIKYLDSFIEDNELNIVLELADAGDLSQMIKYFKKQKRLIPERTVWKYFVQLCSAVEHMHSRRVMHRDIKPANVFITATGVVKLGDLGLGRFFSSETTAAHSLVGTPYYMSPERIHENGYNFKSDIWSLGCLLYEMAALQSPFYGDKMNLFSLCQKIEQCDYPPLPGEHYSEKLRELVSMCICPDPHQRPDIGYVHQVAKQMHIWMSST
T3 sequence (Q86Y07 whole entry): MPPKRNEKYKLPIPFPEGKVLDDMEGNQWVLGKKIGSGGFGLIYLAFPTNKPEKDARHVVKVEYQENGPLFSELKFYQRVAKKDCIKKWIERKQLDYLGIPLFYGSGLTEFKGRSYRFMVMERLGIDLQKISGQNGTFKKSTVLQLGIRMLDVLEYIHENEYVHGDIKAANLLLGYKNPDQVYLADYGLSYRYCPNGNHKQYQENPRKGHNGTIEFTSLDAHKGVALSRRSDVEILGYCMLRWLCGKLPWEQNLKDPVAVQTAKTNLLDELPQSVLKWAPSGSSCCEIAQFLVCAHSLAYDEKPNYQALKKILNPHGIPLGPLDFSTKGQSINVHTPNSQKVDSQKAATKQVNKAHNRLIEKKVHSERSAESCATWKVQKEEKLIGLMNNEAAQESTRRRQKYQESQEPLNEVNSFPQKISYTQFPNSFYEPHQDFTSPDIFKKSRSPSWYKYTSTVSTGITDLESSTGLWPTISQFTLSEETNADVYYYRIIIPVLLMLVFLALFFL
T9 sequence (Q9BYP7 whole entry): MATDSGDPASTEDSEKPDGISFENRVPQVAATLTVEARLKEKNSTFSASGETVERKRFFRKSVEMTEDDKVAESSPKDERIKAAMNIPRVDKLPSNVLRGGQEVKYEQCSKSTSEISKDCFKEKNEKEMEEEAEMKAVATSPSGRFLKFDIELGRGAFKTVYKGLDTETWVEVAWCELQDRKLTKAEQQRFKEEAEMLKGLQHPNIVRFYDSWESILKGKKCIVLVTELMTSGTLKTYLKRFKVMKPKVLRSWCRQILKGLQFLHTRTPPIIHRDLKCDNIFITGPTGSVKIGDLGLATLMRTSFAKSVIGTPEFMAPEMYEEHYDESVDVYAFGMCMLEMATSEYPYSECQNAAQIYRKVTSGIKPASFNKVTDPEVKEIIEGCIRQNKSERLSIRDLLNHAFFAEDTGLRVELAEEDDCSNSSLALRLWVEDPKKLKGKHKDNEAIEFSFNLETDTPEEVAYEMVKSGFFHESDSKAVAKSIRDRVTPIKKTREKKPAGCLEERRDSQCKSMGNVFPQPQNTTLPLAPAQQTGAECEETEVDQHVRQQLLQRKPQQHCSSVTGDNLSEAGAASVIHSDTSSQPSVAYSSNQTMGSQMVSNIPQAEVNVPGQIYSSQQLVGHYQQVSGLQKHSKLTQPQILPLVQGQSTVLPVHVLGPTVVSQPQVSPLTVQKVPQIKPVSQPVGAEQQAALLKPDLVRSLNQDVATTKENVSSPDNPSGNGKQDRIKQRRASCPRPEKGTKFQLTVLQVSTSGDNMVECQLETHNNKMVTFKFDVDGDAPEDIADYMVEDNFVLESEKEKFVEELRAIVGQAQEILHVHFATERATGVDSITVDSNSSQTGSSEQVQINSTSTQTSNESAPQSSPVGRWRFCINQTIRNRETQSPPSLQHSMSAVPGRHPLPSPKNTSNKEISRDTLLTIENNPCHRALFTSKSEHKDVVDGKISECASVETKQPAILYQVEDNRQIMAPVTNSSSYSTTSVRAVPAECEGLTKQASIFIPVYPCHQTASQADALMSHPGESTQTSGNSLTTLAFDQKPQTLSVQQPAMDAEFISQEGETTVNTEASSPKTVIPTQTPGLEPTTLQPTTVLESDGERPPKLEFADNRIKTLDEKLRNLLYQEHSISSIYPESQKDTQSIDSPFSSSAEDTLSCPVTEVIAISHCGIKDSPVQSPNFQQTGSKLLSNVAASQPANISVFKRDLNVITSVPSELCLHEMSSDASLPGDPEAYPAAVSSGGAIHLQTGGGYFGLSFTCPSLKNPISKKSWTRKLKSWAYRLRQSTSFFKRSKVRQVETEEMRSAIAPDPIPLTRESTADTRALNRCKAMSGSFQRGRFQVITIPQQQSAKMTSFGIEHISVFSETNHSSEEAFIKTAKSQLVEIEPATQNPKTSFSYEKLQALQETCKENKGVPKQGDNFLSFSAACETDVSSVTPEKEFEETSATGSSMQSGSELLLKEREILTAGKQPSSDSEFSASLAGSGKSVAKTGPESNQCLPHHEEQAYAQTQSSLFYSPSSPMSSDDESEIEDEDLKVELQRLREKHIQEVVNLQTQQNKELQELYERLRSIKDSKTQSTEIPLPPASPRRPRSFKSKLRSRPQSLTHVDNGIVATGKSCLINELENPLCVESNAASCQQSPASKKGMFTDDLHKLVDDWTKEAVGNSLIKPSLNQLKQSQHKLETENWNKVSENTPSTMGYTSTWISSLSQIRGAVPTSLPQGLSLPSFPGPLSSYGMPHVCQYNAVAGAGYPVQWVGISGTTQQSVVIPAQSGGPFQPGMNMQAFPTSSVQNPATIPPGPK

As for `Oc1ccc(-c2nc(-c3ccc(F)cc3)c(-c3ccncc3)[nH]2)cc1`, the Activity in experiment [1], in experiment [2] and in experiment [3] was under 65% throughout.

Take `c1ccc2c(-c3cnn4cc(-c5ccc(N6CCNCC6)cc5)cnc34)ccnc2c1`: the Activity in [4], in [5], in experiment [6], in experiment [7] and in experiment [8] was under 65% in each case. Further, the pIC50 (in general, the IC50 on a negative log10 scale, so that one unit is a factor of ten) in experiment [9] is 6.81.

In the case of `Cn1cc(C2=C(c3cn(CCCSC(=N)N)c4ccccc34)C(=O)NC2=O)c2ccccc21` [BISINDOLYLMALEIMIDE IX], the Activity in experiment [10], in experiment [14], in [15] and in experiment [17] was under 65% throughout. In addition, the pIC50 in experiment [11] is 7.28; in experiment [12], 4.79; in experiment [13] it was 6.13; in experiment [16] it was 5.00; in [18] it was 6.21.

Regarding `O=C1Nc2ccc3ncsc3c2/C1=C/c1c[nH]cn1`, the Activity in experiment [19] and in experiment [22] was under 65% each time. The pIC50 in [20] was 5.14; in experiment [21], 4.22.

Regarding `Oc1ccc(-c2nc(-c3ccncc3)c(-c3ccc(F)cc3)[nH]2)cc1` [SB-202190], in [23], the pIC50 was 4.33.

With `C=CCn1c(=O)c2cnc(Nc3ccc(N4CCN(C)CC4)cc3)nc2n1-c1cccc(C(C)(C)O)n1` [ADAVOSERTIB], the Activity in [24] and in experiment [25] was under 65% in each case. The compound further showed a pIC50 in experiment [26] of 5.64.

`O=C1Nc2ccc(I)cc2C1=Cc1cc(Br)c(O)c(Br)c1` [GW305074X]: the Activity in experiment [27], in experiment [28], in experiment [30], in [32] and in experiment [33] was under 65% each time. In addition, the pIC50 in [29] is 5.36; in experiment [31] it was 6.55; in experiment [34], 5.72; in [35], 5.27; in [36], 7.84.

For the compound `CCOc1nc(NC(=O)Cc2cc(OC)ccc2OC)cc(N)c1C#N`, the Activity in experiment [37] was under 65%.
